Test results: US6521608B1, “Vitamin D and its analogs in the treatment of tumors and other hyperproliferative disorders” (Oregon Health & Science University, priority 1998, dated 2003)
“And” between values parts separate entries of the source, which are not always exact repeats. Identical values can stand only once. Like-named read-outs stand apart in the source and are kept apart here.

Experiments:
[1] = tested on: LNCaP human prostate cancer cells; conditions: LNCaP cells in vitro, Skowronski et al., cited from earlier work
[2] = Trial of weekly pulse oral calcitriol: serum calcium, serum phosphate, 24 hour urinary calcium; format: in vivo, human; conditions: for Mean serum phosphate: 3.43 (SD 0.56) prior to treatment; for Mean serum calcium: 9.55 (SD 0.57) prior to treatment
Procedure: (§1) Patients were asked to maintain a reduced calcium diet for the four treatment weeks, with a goal of less than 500 mg per day, as described in Example 1. Calcitriol (Rocaltrol®, Roche Pharmaceuticals) was given orally once a week for four weeks. Each weekly dose was given in four divided doses given hourly over four hours. The starting dose was 0.06 μg/kg.
(§2) Complete blood count, serum creatinine, total serum bilirubin, ALT, alkaline phosphatase were monitored weekly. Serum calcium and phosphate were checked on the treatment day (day 1), and on days 2 and 3. Twenty-four hour urinary calcium excretion was measured on day 2. The 1,25-dihydroxyvitaunin D levels were measured by ^125I radioimmunoassay (Incstar, Stillwater, Minn.) and by a radioreceptor assay using calf thymus 1,25-dihydroxyvitamin D receptor (Endocrine Sciences, Calabasas Hills, Calif.). Peak levels were measured two hours after all the pills had been ingested. Trough levels were measured approximately 48 hours later.

[3] = Trial of weekly pulse oral calcitriol: plasma/serum 1,25-dihydroxyvitamin D levels (radioimmunoassay, radioreceptor assay); format: in vivo, human; parameters: Mean 48 hour 1,25-dihydroxyvitamin D level: unit not given here; conditions: for Mean peak 1,25-dihydroxyvitamin D level: peak two hours after all pills; for Mean 48 hour 1,25-dihydroxyvitamin D level: trough approximately 48 hours later
Procedure: In this example a person with metastatic malignant melanoma of the right jaw received a dose of 37 mcg of calcitriol (Rocaltrol, Roche) administered as 74 tablets (0.5 mcg each tablet) divided into four nearly equal doses given in hour one, two, three and four. The patient received this same therapy on day 1, 8, 15 and 22, and observed until at least day 56. The level of calcitriol in a plasma sample obtained two hours after the last dose of calcitriol (on week one) was determined using a commercial assay at Endocrine Sciences, Inc. The level was 1826 pg/ml, compared to the range for calcitriol levels in normal controls being 21 to 65 pg/ml.
as §1, §2

[4] = tested on: ovarian cancer; conditions: continuous dose; cited from earlier work
[5] = tested on: malignancy refractory to standard therapy; assay: Trial of weekly pulse oral calcitriol: tumor response (WHO guidelines, tumor markers); format: in vivo, human
Procedure: (§3) Eligibility criteria included histologically confirmed malignancy refractory to standard therapy; age ≧18 years; expected survival of >2 months; ECOG performance status ≦2; hematocrit ≧30; serum creatinine ≦1.2 mg/dL; serum calcium ≦10.5 mg/dL; serum phosphate <4.2 mg/dL; ALT ≦60 IUIL; total serum bilirubin <2 mg/dL. Exclusion criteria included pregnancy, history of hypercalcemia, kidney stones, heart failure or significant heart disease including myocardial infarction in the last 3 months, known cardiac ejection fraction less than 30%, current digoxin therapy, thiazide diuretic therapy within 7 days, bisphosphonate treatment within 4 weeks, systemic steroid therapy within 2 weeks, and unwillingness or inability to stop all magnesium containing antacids, bile resin binding drugs, or calcium supplements for the duration of the study.
as §1
After completing the four week treatment period, patients were monitored for four additional weeks. Serum calcium was checked in weeks 5 and 7 and tumor measurements were obtained in week 7. All toxicities were graded according to NCI Common Toxicity Criteria. Response was assessed according to WHO guidelines.

[6] = tested on: myelodysplastic syndrome; conditions: 2 mcg daily for 8 weeks or longer, cited from earlier work
[7] = Trial of weekly pulse oral calcitriol: toxicities graded by NCI Common Toxicity Criteria; format: in vivo, human
Procedure: as §3, §1, §2
After completing the four week treatment period, patients were monitored for four additional weeks. Serum calcium was checked in weeks 5 and 7 and tumor measurements were obtained in week 7. […] Response was assessed according to WHO guidelines. […]

[8] = tested on: breast carcinoma metastatic to the skeleton; assay: Case history: treatment of breast cancer with weekly pulse calcitriol; format: in vivo, human; conditions: 11 mcg po on day 1, 8, 15, 22; for serum tumor marker CA15-3: 445 pre-treatment
Excerpt: In this example, a person with breast carcinoma metastatic to numerous sites in the skeleton received a dose of 11 mcg of calcitriol (Rocaltrol, Roche) administered as […] (0.5 mcg each tablet) divided into four nearly equal doses given in hour one, two, three and four. The patient received this same therapy on day 1, 8, 15 and 22, and then was observed on study until day 56, and tolerated the treatment well. […] Objective benefits included a progressive decrease in the serum tumor marker CA15-3 from 445 (pre-treatment) to 365 (day 27), 365 (day 48) and 320 (day 70). […] No new lesions or pathologic fractures identified were identified by day 64.

[9] = cited from earlier work
[10] = relative to calcitriol = 1; cited from earlier work
[11] = tested on: hormone refractory prostate cancer; conditions: daily oral dose of 0.5-1.5 mcg, fourteen patients; cited from earlier work
[12] = single oral dose of 4 mcg, healthy volunteers, Mason et al.

In the case of `C=C1/C(=C\C=C2/CCC[C@]3(C)[C@@H]([C@H](C)CCCC(C)(C)O)CC[C@@H]23)C[C@@H](O)C[C@@H]1O` [calcitriol, 1α,25-dihydroxycholecalciferol], the “concentration giving measurable growth inhibition” value [1] is given as 0.1 nM, the IC50 ([1]; read-out: concentration giving 50% growth inhibition) is given as 1 nM and the “serum calcium and other chemical and hematological parameters, melanoma patient” value ([2]; 37 mcg po on day 1, 8, 15, 22) is given as “remained normal”. For the same compound, the Mean serum phosphate ([2]; 24 hours after dose, normal range 2.2-4.2) was 3.98 (SD 0.57) mg/dL, the Mean serum calcium ([2]; 24 hours after dose, normal range 8.5-10.5) was 9.76 (SD 0.63) mg/dL and the Mean serum phosphate ([2]; 48 hours after dose, p<0.0001) was 3.86 (SD 0.53) mg/dL. For the same compound, the Mean serum calcium ([2]; 48 hours after dose, p=0.0002) was 9.88 (SD 0.68) mg/dL, the “time for calcium levels above the normal range to return to normal” value ([2]; no intervention) was ≤ 2 days and the “24 hour urinary calcium excretion, range” value ([2]; on treatment, day 2 of each treatment week, 44-292 prior to treatment) was 59 to 594 mg. The “Mean 24 hour urinary calcium excretion” value ([2]; on treatment, day 2 of each treatment week, 130 (SD 62) prior to treatment, normal range 100-300) was 263 (SD 125) mg, the “Serum 1,25-dihydroxyvitamin D trough levels” value ([3]; 48 hours, normal range 0.05-0.16 nM) was “returned to normal or near normal levels by 48 hours” and the “Mean peak 1,25-dihydroxyvitamin D level” value ([3]; dose level 0.06 μg/kg po over four hours, 1 patient) was 0.71 nM. For the same compound, the “Mean 48 hour 1,25-dihydroxyvitamin D level” value ([3]; dose level 0.06 μg/kg po) was 0.27, the “Mean peak 1,25-dihydroxyvitamin D level” value ([3]; dose level 0.24 μg/kg po over four hours, 1 patient) was 2.27 nM and the “Mean 48 hour 1,25-dihydroxyvitamin D level” value ([3]; dose level 0.24 μg/kg po) was 0.21. For the same compound, the “Mean peak 1,25-dihydroxyvitamin D level” value ([3]; dose level 0.48 μg/kg po over four hours, 2 patients) was 4.11 nM, the “Mean 48 hour 1,25-dihydroxyvitamin D level” value ([3]; dose level 0.48 μg/kg po) was 0.23 and the “Mean peak 1,25-dihydroxyvitamin D level” value ([3]; dose level 0.80 μg/kg po over four hours, 1 patient) was 3.53 nM. For the same compound, the “Mean peak 1,25-dihydroxyvitamin D level” value ([3]; dose level 0.96 μg/kg po over four hours, 1 patient) was 3.83 nM, the “Mean peak 1,25-dihydroxyvitamin D level” value ([3]; dose level 1.60 μg/kg po over four hours, 2 patients) was 3.65 nM and the “Mean peak 1,25-dihydroxyvitamin D level” value ([3]; dose level 1.92 μg/kg po over four hours, 1 patient) was 3.34 nM. The “Mean peak 1,25-dihydroxyvitamin D level” value ([3]; dose level 2.00 μg/kg po over four hours, 6 patients) was 4.07 nM, the “Mean 48 hour 1,25-dihydroxyvitamin D level” value ([3]; dose level 2.00 μg/kg po) was 0.26 and the “Mean peak 1,25-dihydroxyvitamin D level” value ([3]; dose level 2.80 μg/kg po over four hours, 2 patients) was 2.96 nM. For the same compound, the “effect of dose escalation beyond 0.48 μg/kg on peak calcitriol levels” value ([3]; dose levels up to 2.80 μg/kg po) was “did not result in further increases in peak calcitriol levels”, the concentration at 2 h ([3]; male, human, plasma, melanoma patient, 37 mcg po in four hourly doses, sample two hours after the last dose, week one, normal controls 21 to 65 pg/ml, read-out: level of calcitriol in plasma) was 1.83 ng/mL and the “Peak blood levels of calcitriol above the upper limit of normal” value ([3]; pulsed weekly administration) was “about 25 fold”. For the same compound, the “clearance of calcitriol from the blood” value ([3]; weekly pulse schedule) was “essentially completely cleared from the blood by day 3”, the “peak blood calcitriol levels in patients” value ([3]; weekly pulse schedule, highest level seen) was “up to 8.9 nM” and the hypercalcemia [4] was “encountered hypercalcemia”. For the same compound, the “decline in serum AFP level” value ([5]; hepatocellular carcinoma patient, two cycles (0.80 and 1.60 μg/kg)) was 70%, the “patients with measurable disease with evidence of progressive disease” value ([5]; of eight patients) was “three” and the “patients without measurable disease with tumor marker or clinical evidence of progressive disease” value ([5]; of seven patients) was “three”. For the same compound, the “PSA course in a prostate cancer patient” value ([5]; two cycles of therapy, rapidly rising PSA prior to enrollment) was “stable PSA for the entire 16 weeks”, the “patients without measurable disease with no evidence of progression” value ([5]; weekly pulse calcitriol) was “Four of seven” and the “patients with measurable disease who had stable disease” value ([5]; weekly pulse calcitriol, tumor measurements week 7) was “Five of eight”. The “patients who experienced symptomatic hypercalcemia” value ([6]; 18 patients) was 4, the “patients with minor and transient improvements in the peripheral blood counts” value [6] was “Eight of 18” and the “deaths in the trial” value ([7]; 15 patients, 20 cycles) was “No deaths occurred”. The “intermittent dose tolerated without hypercalcemia” value ([7]; given intermittently) was ≤ 0.48 µg/kg, the dose-limiting hypercalcemic toxicity ([7]; in vivo) was “No patient developed dose-limiting hypercalcemic toxicity” and the “Radiologic evaluation of areas of known bony involvement” value [8] was “progressive sclerosis of multiple lesions in the pelvis and right hip”. The Subjective beneficial effects [8] was “a reduction in pain and in analgesia required”, the “serum tumor marker CA15-3” value ([8]; day 27) was 365 and the “serum tumor marker CA15-3” value ([8]; day 48) was 365. The “serum tumor marker CA15-3” value ([8]; day 70) was 320, the “peak 1,25-dihydroxyvitamin D serum concentrations” value ([9]; 2 mcg single oral dose, healthy volunteers, Papapoulus et al.) was 0.235 nM and 0.351 nM and the “patients with a serum calcium above 10.8” value ([9]; 4 mcg per day for 4 days, postmenopausal women, no clinically significant hypercalcemia, Geusens et al.) was “Four of the 27”. The “peak of stable serum levels of 1,25-dihydroxyvitamin D” value ([9]; 32 mcg/day for 3 months, patients with osteopetrosis, no hypercalcemia, Key et al.) was 2.32 nM, the “duration of hypercalcemic effect” value ([9]; in vivo) was 3 to 5 days and the serum half life ([9]; in vivo) was 3 to 6 h. For the same compound, the “time after administration at which intestinal absorption of calcium begins to increase” value ([9]; in vivo) was 2 h, the “time of maximal hypercalcemic effect” value ([9]; in vivo) was 10 h and the “time at which peak serum concentration is reached” value ([9]; replacement therapy doses) was 2 h. For the same compound, the “peak 1,25-dihydroxyvitamin D serum concentrations” value [9, 12] was 0.42 nM, the serum calcium [9, 12] was “no elevation in serum calcium” and the serum calcium ([9]; up to 2.7 mcg/day for 7 to 15 days, normal volunteers, Brickman et al.) was “no significant elevations in serum calcium were observed”. For the same compound, the “stable 1,25-dihydroxyvitamin D serum levels” value ([9]; up to 3 mcg/day for 6-12 days, normal volunteers, Adams et al.) was 0.184 to 0.235 nM, the “elevation in serum calcium” value ([9]; up to 3 mcg/day for 6-12 days, patients on a low calcium diet, Adams et al.) was “None of the patients” and the “calcemic index (CI)” value [10] was 1. The “patients who experienced hypercalcemia” value [11] was “Thirteen” and the response [11] was “no significant response was demonstrated”.
